Experimental data reported in PubChem BioAssay AID1963874 (Molecular Pharmacology Branch, DTP, NCI, 2024).

Tested on: 253994-281-T-J1-PDC KRAS-mutant spheroids with HUVEC/MSC, viability
Test: Anticancer human tumor 253994-281-T-J1-PDC patient-derived colorectal carcinoma cell line growth inhibition [KRAS2]
Details: for IC50: curve of first compound; for viability, T/C: stronger effect = lower value
Summary of the method: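 KRAS-mutant tumor cells were grown as spheroids with HUVEC endothelial cells and human MSCs as stroma. Targeted agents were tested alone and with KRAS pathway inhibitors. Doses started at or near clinical Cmax, or 10 microM, descending half-log.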

[1] = second compound 0.0316 µM, first compound 0.0316 µM
[2] = second compound 0.0316 µM, first compound 0.1 µM
[3] = second compound 0.0316 µM, first compound 0.316 µM
[4] = second compound 0.0316 µM, first compound 1 µM
[5] = second compound 0.0316 µM, first compound 3.16 µM
[6] = second compound 0.0316 µM, first compound 10 µM
[7] = second compound 0.1 µM, first compound 0.0316 µM
[8] = second compound 0.1 µM, first compound 0.1 µM
[9] = second compound 0.1 µM, first compound 0.316 µM
[10] = second compound 0.1 µM, first compound 1 µM
[11] = second compound 0.1 µM, first compound 3.16 µM
[12] = second compound 0.1 µM, first compound 10 µM
[13] = second compound 0.316 µM, first compound 0.0316 µM
[14] = second compound 0.316 µM, first compound 0.1 µM
[15] = second compound 0.316 µM, first compound 0.316 µM
[16] = second compound 0.316 µM, first compound 1 µM
[17] = second compound 0.316 µM, first compound 3.16 µM
[18] = second compound 0.316 µM, first compound 10 µM
[19] = second compound 1 µM, first compound 0.0316 µM
[20] = second compound 1 µM, first compound 0.1 µM
[21] = second compound 1 µM, first compound 0.316 µM
[22] = second compound 1 µM, first compound 1 µM
[23] = second compound 1 µM, first compound 3.16 µM
[24] = second compound 1 µM, first compound 10 µM
[25] = second compound 3.16 µM, first compound 0.0316 µM
[26] = second compound 3.16 µM, first compound 0.1 µM
[27] = second compound 3.16 µM, first compound 0.316 µM
[28] = second compound 3.16 µM, first compound 1 µM
[29] = second compound 3.16 µM, first compound 3.16 µM
[30] = second compound 3.16 µM, first compound 10 µM
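Note: spheroids exposed to agents for seven days before readout.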
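Throughout, for viability, T/C: percent of DMSO vehicle control viability.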

Compound	IC50 (second compound 0.0316 µM) [µM]	IC50 (second compound 0.1 µM) [µM]	IC50 (second compound 0.316 µM) [µM]	IC50 (second compound 1 µM) [µM]	IC50 (second compound 3.16 µM) [µM]	viability, T/C [1] [%]	viability, T/C [2] [%]	viability, T/C [3] [%]	viability, T/C [4] [%]	viability, T/C [5] [%]	viability, T/C [6] [%]	viability, T/C [7] [%]	viability, T/C [8] [%]	viability, T/C [9] [%]	viability, T/C [10] [%]	viability, T/C [11] [%]	viability, T/C [12] [%]	viability, T/C [13] [%]	viability, T/C [14] [%]	viability, T/C [15] [%]	also measured
COc1cc(Nc2ncc3c(n2)-c2ccc(Cl)cc2C(c2c(F)cccc2OC)=NC3)ccc1C(=O)O + C=CC(=O)N1CCN(c2nc(OCC3CCCN3C)nc3c2CCN(c2cccc4cccc(C)c24)C3)CC1CC#N	0.0898	> 10	< 0.0316	> 10	< 0.0316	74.5	42.8	39	48.5	50	57	76.6	36.6	38.9	40.7	54.2	64.4	60.9	35.9	32.6	viability, T/C [16]: 45.9%; viability, T/C [17]: 50.4%; viability, T/C [18]: 55.1%; viability, T/C [19]: 70.1%; viability, T/C [20]: 39.5%; viability, T/C [21]: 36%; viability, T/C [22]: 40.3%; viability, T/C [23]: 60.6%; viability, T/C [24]: 58.4%; viability, T/C [25]: 17.1%; viability, T/C [26]: 8.06%; viability, T/C [27]: 5.83%; viability, T/C [28]: 20.6%; viability, T/C [29]: 25.9%; viability, T/C [30]: 25.9%
COc1cc2nccc(Oc3ccc(NC(=O)C4(C(=O)Nc5ccc(F)cc5)CC4)cc3)c2cc1OC + C=CC(=O)N1CCN(c2nc(OCC3CCCN3C)nc3c2CCN(c2cccc4cccc(C)c24)C3)CC1CC#N	> 10	> 10	> 10	7.14	0.166	88.8	104	81.8	91.1	92.2	69.8	101	101	80.4	79.5	87.6	71.1	97.8	99.5	89.6	viability, T/C [16]: 97.6%; viability, T/C [17]: 87.5%; viability, T/C [18]: 50.3%; viability, T/C [19]: 97.1%; viability, T/C [20]: 96.5%; viability, T/C [21]: 84.8%; viability, T/C [22]: 92.2%; viability, T/C [23]: 88.9%; viability, T/C [24]: 33.9%; viability, T/C [25]: 62.7%; viability, T/C [26]: 65.5%; viability, T/C [27]: 34.6%; viability, T/C [28]: 20.4%; viability, T/C [29]: 18.9%; viability, T/C [30]: 0.21%
